Assay [1] has as its target T1, Discoidin domain-containing receptor 2 (Homo sapiens) (UniProt Q16832).
T1 sequence (whole entry): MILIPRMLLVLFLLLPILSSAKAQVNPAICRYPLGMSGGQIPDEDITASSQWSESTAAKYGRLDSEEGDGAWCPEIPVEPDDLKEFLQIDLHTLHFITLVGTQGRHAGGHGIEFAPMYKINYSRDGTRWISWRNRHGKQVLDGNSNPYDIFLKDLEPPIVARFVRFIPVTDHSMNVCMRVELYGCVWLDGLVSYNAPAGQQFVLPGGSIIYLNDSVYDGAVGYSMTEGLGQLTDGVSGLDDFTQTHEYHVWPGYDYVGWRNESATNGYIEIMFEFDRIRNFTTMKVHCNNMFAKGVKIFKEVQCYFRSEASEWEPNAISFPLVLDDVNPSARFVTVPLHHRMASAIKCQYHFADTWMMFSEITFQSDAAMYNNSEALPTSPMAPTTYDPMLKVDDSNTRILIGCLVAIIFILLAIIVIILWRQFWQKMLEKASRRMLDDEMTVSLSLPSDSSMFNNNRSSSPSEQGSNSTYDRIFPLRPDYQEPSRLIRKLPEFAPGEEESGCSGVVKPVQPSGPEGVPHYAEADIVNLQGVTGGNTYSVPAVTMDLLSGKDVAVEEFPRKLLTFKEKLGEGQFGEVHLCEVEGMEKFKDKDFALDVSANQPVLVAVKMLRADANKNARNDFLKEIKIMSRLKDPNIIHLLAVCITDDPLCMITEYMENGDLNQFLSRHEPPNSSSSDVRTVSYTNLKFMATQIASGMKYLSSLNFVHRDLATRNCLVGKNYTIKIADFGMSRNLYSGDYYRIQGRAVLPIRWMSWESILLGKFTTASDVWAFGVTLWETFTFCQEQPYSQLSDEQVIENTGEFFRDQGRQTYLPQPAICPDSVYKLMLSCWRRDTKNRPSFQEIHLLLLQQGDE
Kind of assay: Inhibition of DDR2 (unknown origin) at 10 uM after 120 mins P33 radiolabeled kinase activity assay.

Assay [2] addresses T2, Serine/threonine-protein kinase DCLK1 (Homo sapiens) (UniProt O15075).
T2 sequence (whole entry): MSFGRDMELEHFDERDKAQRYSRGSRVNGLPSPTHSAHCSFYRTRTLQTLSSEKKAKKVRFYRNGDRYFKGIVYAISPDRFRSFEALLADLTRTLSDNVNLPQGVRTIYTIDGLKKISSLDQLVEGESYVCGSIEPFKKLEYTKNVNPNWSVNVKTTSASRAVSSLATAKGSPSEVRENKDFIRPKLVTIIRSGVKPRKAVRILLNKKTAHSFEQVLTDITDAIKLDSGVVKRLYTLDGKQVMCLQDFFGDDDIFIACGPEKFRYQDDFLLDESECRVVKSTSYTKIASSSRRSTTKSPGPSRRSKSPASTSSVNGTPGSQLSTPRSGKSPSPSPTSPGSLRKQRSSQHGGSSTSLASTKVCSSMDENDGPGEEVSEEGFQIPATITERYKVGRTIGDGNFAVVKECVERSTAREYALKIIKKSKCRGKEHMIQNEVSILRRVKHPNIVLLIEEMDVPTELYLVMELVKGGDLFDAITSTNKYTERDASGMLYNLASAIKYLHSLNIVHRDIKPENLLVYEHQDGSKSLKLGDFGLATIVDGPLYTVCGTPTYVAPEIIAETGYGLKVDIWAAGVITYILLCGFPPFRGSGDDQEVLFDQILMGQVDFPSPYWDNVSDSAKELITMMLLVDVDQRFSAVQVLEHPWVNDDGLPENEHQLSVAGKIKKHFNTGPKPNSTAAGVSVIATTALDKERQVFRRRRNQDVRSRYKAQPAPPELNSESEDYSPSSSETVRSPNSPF
Kind of assay: Inhibition of DCAMKL1 (unknown origin) at 10 uM after 120 mins P33 radiolabeled kinase activity assay.

The target of assay [3] is T3, Ephrin type-B receptor 4 (Homo sapiens) (UniProt P54760).
T3 sequence (whole entry): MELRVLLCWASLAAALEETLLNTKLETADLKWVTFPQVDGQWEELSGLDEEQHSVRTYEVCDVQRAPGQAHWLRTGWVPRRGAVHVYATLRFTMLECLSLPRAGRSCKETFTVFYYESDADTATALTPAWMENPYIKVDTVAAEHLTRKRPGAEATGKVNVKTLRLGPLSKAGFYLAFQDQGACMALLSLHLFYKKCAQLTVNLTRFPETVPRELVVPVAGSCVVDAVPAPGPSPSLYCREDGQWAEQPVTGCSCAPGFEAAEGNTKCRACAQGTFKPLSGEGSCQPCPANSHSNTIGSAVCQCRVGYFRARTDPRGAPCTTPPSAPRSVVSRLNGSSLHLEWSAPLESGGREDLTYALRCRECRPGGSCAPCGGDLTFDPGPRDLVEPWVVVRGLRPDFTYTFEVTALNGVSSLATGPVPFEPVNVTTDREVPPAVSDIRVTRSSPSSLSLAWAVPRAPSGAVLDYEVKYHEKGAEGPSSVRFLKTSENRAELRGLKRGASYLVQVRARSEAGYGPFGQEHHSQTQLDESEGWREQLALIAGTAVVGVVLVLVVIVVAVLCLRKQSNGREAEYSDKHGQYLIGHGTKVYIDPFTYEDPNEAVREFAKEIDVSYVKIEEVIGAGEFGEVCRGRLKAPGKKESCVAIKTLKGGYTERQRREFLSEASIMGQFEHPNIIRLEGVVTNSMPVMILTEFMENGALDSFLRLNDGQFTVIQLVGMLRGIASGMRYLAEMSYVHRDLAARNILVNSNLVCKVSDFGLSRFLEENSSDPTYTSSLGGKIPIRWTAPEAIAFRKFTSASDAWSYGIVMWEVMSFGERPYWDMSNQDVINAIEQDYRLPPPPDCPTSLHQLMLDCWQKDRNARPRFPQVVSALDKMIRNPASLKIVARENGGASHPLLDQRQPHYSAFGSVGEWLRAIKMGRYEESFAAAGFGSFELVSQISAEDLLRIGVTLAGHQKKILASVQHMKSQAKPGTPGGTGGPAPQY
Kind of assay: Inhibition of EPHB4 (unknown origin) at 10 uM after 120 mins P33 radiolabeled kinase activity assay.

Turning to `COCCNC(=O)c1ccc2c(c1)nc(-c1cnc(-c3ccc(Cl)cc3)[nH]1)n2CCOC`, the inhibition amounted to 28.2% in assay [1], 4.11% in assay [2] and 29.3% in assay [3].

Consider `CC(C)(C)c1cc(NC(=O)Nc2ccc(Oc3ccncc3)cc2)no1`, for which the inhibition in assay [1] is 98%; in assay [2], 2.97%; in assay [3], 96%.

As to `CS(=O)(=O)c1cccc(Nc2nccc(-c3sc(N4CCOCC4)nc3-c3cccc(NS(=O)(=O)c4c(F)cccc4F)c3)n2)c1`, the inhibition in assay [1] is 99%; in assay [2] it was 8.06%; in assay [3] it was 93.8%.

The inhibition is the percentage by which the read-out fell short of the control. A high value points to strong suppression.

The values are drawn from ChEMBL document CHEMBL3627608, “Crystal structures of human RIP2 kinase catalytic domain complexed with ATP-competitive inhibitors: Foundations for understanding inhibitor selectivity” (Bioorg Med Chem, 2015).
